Values of other authors as cited in US20240268416A1, “ANIMAL FEED ADDITIVE COMPOSITIONS AND METHODS OF USE” (PMI Nutrition, LLC, priority 2023, published 2024).

Tested on: C. elegans
Conditions: C. elegans assay

urolithins
concentration needed to obtain a positive effect on muscle function: 50 µM | concentration required to trigger the muscle function response: 11.4 µg/mL
